# Measured values as given in PMC6811774, “Potent, selective, and subunit‐dependent activation of TRPC5 channels by a xanthine derivative” (British Journal of Pharmacology, 2019).
# pIC50: −log10 of the molar value. Where “and” joins values, the source holds several entries; their conditions need not be identical. Equal entries are not always repeated.
# Columns and labels:
# TRPC5:C5 = test system: TRPC5:C5; parameters: method as in Rubaiy, Ludlow, Henrot, et al., 2017; conditions: EA-mediated activation, 10 nM EA; ref Rubaiy, Ludlow, Henrot, et al., 2017; read-out: IC50, inhibition of TRPC5:C5; cited from earlier work
# [1] = target: T1, TRPC5-SYFP2 (TRPC5:C5 channels) (Homo sapiens, UniProt Q9UL62); experiment: [Ca2+]i measurement (Fura-2, FlexStation) in (Tet+) HEK T-REx cells expressing hTRPC5-SYFP2; format: cell-based
# T1 construct: expressed in transfected cells
# T1 sequence (Q9UL62 1-973): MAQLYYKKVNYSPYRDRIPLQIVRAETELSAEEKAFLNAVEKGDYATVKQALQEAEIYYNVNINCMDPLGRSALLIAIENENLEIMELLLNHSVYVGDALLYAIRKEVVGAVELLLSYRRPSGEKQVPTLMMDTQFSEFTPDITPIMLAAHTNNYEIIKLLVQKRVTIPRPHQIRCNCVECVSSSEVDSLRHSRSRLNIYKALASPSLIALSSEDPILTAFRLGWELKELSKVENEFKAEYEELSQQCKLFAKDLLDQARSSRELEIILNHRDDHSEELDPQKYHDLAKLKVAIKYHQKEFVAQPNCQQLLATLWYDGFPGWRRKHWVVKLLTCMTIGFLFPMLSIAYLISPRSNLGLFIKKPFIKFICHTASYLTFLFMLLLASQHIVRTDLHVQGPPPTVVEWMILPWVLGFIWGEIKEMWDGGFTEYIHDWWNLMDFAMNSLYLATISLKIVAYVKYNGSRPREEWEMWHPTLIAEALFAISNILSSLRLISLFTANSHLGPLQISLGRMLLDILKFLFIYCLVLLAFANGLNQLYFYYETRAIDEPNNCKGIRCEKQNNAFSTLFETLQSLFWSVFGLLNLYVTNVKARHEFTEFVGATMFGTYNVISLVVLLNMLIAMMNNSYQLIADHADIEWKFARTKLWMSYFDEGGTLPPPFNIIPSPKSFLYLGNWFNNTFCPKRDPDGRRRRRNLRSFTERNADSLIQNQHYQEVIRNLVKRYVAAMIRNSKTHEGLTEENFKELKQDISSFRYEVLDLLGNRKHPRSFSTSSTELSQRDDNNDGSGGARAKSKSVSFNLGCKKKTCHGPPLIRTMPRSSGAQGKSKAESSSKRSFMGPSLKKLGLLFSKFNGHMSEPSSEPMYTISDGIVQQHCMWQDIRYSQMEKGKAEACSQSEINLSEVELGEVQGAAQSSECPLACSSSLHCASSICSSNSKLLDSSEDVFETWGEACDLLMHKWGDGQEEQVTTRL
# Excerpt: To facilitate cloning of TRPC5‐SYFP2 and TRPC4‐SYFP2, a pcDNA™4/TO expression vector (ThermoFisher Scientific, Waltham, MA, USA), into which a four amino acid linker (ASAS) flanked by AgeI and SacII restriction sites had been introduced between EcoRI and XhoI restriction sites, was used (Naylor et al., 2016). Human TRPC4β was inserted between BamHI and AgeI restriction sites as described previously (Ludlow et al., 2017). Human TRPC5 (forward primer: 5′ GCTTGGTACCGCCACCATG 3′ and reverse primer: 5′ […] 3′) was inserted upstream of the linker between KpnI and AgeI restriction sites using hTRPC5/pcDNA™4/TO (Zeng et al., 2004) as a PCR template. Both constructs contained an N‐terminal Kozak sequence. SYFP2 was inserted downstream of the linker between SacII and XbaI restriction sites using pSYFP2‐C1 as a PCR template (forward primer, 5′ […] 3′; reverse primer, 5′ […] 3′). pSYFP2‐C1 was a gift from Dorus Gadella (Addgene plasmid #22878; http://n2t.net/addgene:22878; RRID:Addgene_22878; Kremers, Goedhart, van Munster, & Gadella, 2006). Plasmids were sequenced to verify identity.
# HEK T‐REx™ cell line was transfected with TRPC5‐SYFP2 or TRPC4‐SYFP2 using FuGENE® HD transfection reagent. After 48 hr, cells were put under antibiotic selection using 400 μg·ml^−1 zeocin and 10 μg·ml^−1 blasticidin S (Invivogen, San Diego, California, USA). Medium changes were carried out regularly to remove dead cells. HEK T‐REx cells expressing tetracycline‐inducible human TRPC5, TRPC4–C1, and TRPC5–C1 were created as described previously (Akbulut et al., 2015; Ludlow et al., 2017; Rubaiy, Ludlow, Henrot, et al., 2017). TRPC5–C1 and TRPC4–C1 concatemers allow expression of functional channels with defined 2:2 stoichiometry that display ion permeability and current–voltage relationships distinct from those of homomeric TRPC4:C4 or TRPC5:C5 channels and consistent with those obtained upon co‐expression of TRPC1 with TRPC4 or TRPC5 (Ludlow et al., 2017; Rubaiy, Ludlow, Bon, & Beech, 2017; Rubaiy, Ludlow, Henrot, et al., 2017). Cells were cultured in DMEM‐F12 GlutaMAX (Invitrogen, Paisley, UK) containing 10% FBS (Sigma‐Aldrich, Gillingham, UK), with the addition of blasticidin (10 μg·ml^−1) and zeocin (400 μg·ml^−1) to maintain the stable incorporation of the tetracycline repressor and the channel of interest, respectively. Expression of proteins was induced by the addition of tetracycline (1 μg·ml^−1, 24 hr). Cells were maintained in a humidified incubator with 5% CO2 at 37°C. HEK 293 cells stably expressing tetracycline‐regulated human http://www.guidetopharmacology.org/GRAC/ObjectDisplayForward?objectId=494 were prepared similarly and have also been described previously (McHugh, Flemming, Xu, Perraud, & Beech, 2003). For experiments using transient co‐expression of TRPC1 and TRPC5, HEK cells at 40–60% confluency were transfected with pIRES2‐AcGFP1 and pIRES2‐DsRed‐Express2 plasmids containing human TRPC1 and TRPC5, respectively, using Lipofectamine 3000 (ThermoFisher Scientific, Yokohama, Japan). All experiments using transient expression were performed within 48 hr after transfection. A498 cells were cultured in Minimum Essential Medium containing Earle's salts (ThermoFisher Scientific, Loughborough, UK), supplemented with 10% FBS and penicillin–streptomycin (100 units per ml^−1, 100 μg·ml^−1; ThermoFisher Scientific, Loughborough, UK). CHO cells stably expressing http://www.guidetopharmacology.org/GRAC/ObjectDisplayForward?objectId=510 were maintained in Ham's Nutrient Mixture F12 (ThermoFisher Scientific, Loughborough, UK) supplemented with 10% FBS, penicillin–streptomycin, and 1 mg·ml^−1 G418 (InvivoGen, San Diego, California, USA). For experiments using hTRPC3 and hTRPC6, WT HEK 293 cells were transfected with hTRPC3 (Naylor et al., 2016) or hTRPC6 (cloned into pcDNA3) using jetPRIME® transfection reagent (VWR, Lutterworth, UK). Cells were assayed 48 hr after transfection. […]
structure (smiles),measurement,setting,value
"Cn1c(=O)n(CCCO)c(=O)c2c1nc(Oc1cccc(OC(F)(F)F)c1)n2Cc1ccc(Cl)cc1 [Pico145, reference compound]",pIC50,TRPC5:C5,9.00 and ~9.00
same,pIC50,[1],8.70
same,Concentration giving maximal inhibition of AM237 response,[1]; 100 nM AM237,10 nM
same,"Hill slope, inhibition of AM237 response",[1]; 100 nM AM237,–1.3
same,Mode of inhibition of AM237-mediated TRPC5:C5 activation,"[1]; surmountable, parallel rightward shifts, confirmed by patch-clamp",competitive antagonist
